Consider eleven compounds from patent US8334382B2, “Substituted biaryl piperazinyl-pyridine analogues” (Neurogen Corporation, priority 2004, dated 2012).

This experiment has as its target T1, human capsaicin receptor (Homo sapiens, UniProt Q8NER1).
T1 construct: expressed in transfected cells; host or cells: HEK293, stably transfected with pBK-CMV construct
In words: Calcium mobilization assay, determination of antagonist activity. The experiment is classed as cell-based. The note with it: capsaicin at EC50; cells expressing human capsaicin receptor; Example 6. On the procedure: A cDNA encoding full length human capsaicin receptor (SEQ ID NO:1, 2 or 3 of U.S. Pat. No. 6,482,611) is subcloned in the plasmid pBK-CMV (Stratagene, La Jolla, Calif.) for recombinant expression in mammalian cells.
Human embryonic kidney (HEK293) cells are transfected with the pBK-CMV expression construct encoding the full length human capsaicin receptor using standard methods. The transfected cells are selected for two weeks in media containing G418 (400 μg/ml) to obtain a pool of stably transfected cells. Independent clones are isolated from this pool by limiting dilution to obtain clonal stable cell lines for use in subsequent experiments.
Cells transfected with expression plasmids (as described in Example 4) and thereby expressing human capsaicin receptor are seeded and grown to 70-90% confluency in FALCON black-walled, clear-bottomed 96-well plates (#3904, BECTON-DICKINSON, Franklin Lakes, N.J.). The culture medium is emptied from the 96 well plates and FLUO-3 AM calcium sensitive dye (Molecular Probes, Eugene, Oreg.) is added to each well (dye solution: 1 mg FLUO-3 AM, 440 μL DMSO and 440 μl 20% pluronic acid in DMSO, diluted 1:250 in Krebs-Ringer HEPES (KRH) buffer (25 mM HEPES, 5 mM KCl, 0.96 mM NaH2PO4, 1 mM MgSO4, 2 mM CaCl2, 5 mM glucose, 1 mM probenecid, pH 7.4), 50 μl diluted solution per well). Plates are covered with aluminum foil and incubated at 37° C. for 1-2 h in an environment containing 5% CO2. After the incubation, the dye is emptied from the plates, and the cells are washed once with KRH buffer, and resuspended in KRH buffer.
To measure the ability of a test compound to agonize or antagonize a calcium mobilization response in cells expressing capsaicin receptors to capsaicin or other vanilloid agonist, the EC50 of the agonist capsaicin is first determined. An additional 20 μl of KRH buffer and 1 μl DMSO is added to each well of cells, prepared as described above. 100 μl capsaicin in KRH buffer is automatically transferred by the FLIPR instrument to each well. Capsaicin-induced calcium mobilization is monitored using either FLUOROSKAN ASCENT (Labsystems; Franklin, Mass.) or FLIPR (fluorometric imaging plate reader system; Molecular Devices, Sunnyvale, Calif.) instruments. Data obtained between 30 and 60 seconds after agonist application are used to generate an 8-point concentration response curve, with final capsaicin concentrations of 1 nM to 3 μM. KALEIDAGRAPH software (Synergy Software, Reading, Pa.) is used to fit the data to the equation: y=a*(1/(1+(b/x)^c)) to determine the 50% excitatory concentration (EC50) for the response. In this equation, y is the maximum fluorescence signal, x is the concentration of the agonist or antagonist (in this case, capsaicin), a is the Emax, b corresponds to the EC50 value and c is the Hill coefficient. Determination of Agonist Activity
Test compounds are dissolved in DMSO, diluted in 20 μl KRH buffer so that the final concentration of test compounds in the assay well is between 1 μM and 5 μM, and added to cells prepared as described above. The 96 well plates containing prepared cells and test compounds are incubated in the dark, at room temperature for 0.5 to 6 h. It is important that the incubation not continue beyond 6 h. Just prior to determining the fluorescence response, 100 μl capsaicin in KRH buffer at twice the EC50 concentration determined as described above is automatically added by the FLIPR instrument to each well of the 96 well plate for a final sample volume of 200 μl and a final capsaicin concentration equal to the EC50. The final concentration of test compounds in the assay wells is between 1 μM and 5 μM. […] The concentration of antagonist required to provide a 50% decrease, relative to the response observed in the presence of capsaicin and without antagonist, is the IC50 for the antagonist, and is preferably below 1 micromolar, 100 nanomolar, 10 nanomolar or 1 nanomolar.

T1 sequence (Q8NER1 whole entry): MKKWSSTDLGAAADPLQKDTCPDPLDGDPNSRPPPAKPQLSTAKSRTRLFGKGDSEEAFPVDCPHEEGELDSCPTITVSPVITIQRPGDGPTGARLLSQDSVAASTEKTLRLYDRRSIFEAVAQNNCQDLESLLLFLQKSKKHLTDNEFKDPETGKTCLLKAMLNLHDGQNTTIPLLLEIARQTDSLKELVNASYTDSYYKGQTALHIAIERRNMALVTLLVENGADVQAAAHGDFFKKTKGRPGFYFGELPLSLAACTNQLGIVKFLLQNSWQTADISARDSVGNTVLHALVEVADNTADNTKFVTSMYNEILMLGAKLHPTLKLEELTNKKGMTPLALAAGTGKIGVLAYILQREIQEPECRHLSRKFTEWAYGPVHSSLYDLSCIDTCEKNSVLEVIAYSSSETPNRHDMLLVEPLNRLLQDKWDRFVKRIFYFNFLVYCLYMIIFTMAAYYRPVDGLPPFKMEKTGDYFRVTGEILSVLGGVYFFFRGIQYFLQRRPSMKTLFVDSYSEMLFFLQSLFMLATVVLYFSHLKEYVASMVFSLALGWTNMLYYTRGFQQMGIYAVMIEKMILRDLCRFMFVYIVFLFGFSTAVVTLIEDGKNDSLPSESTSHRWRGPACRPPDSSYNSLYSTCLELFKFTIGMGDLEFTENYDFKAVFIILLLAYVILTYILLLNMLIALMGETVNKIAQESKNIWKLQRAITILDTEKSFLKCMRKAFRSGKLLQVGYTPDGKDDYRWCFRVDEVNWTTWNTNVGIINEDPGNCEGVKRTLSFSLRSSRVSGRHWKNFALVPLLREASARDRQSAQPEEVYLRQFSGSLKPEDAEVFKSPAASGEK

By IC50 is commonly meant the concentration that gives 50% inhibition. On to `Cc1cc(CO)cnc1N1CCN(c2cc(-c3ccnc(C(C)C)c3)nc(N3CCCC3C)n2)CC1` (centres unmarked) [Example 74, (6-{4-[6-(2-Isopropyl-pyridin-4-yl)-2-(2-methyl-pyrrolidin-1-yl)-pyrimidin-4-yl]-piperazin-1-yl}-5-methyl-pyridin-3-yl)-methanol], for which the IC50 was at most 1 µM.

For `CC1CCCN1c1nc(-c2ccc(F)c(Cl)c2)cc(N2CCN(c3nccc(C(=O)O)c3Cl)CC2)n1` (centres unmarked) [Example 7, 3-Chloro-2-{4-[6-(3-chloro-4-fluoro-phenyl)-2-(2-methyl-pyrrolidin-1-yl)-pyrimidin-4-yl]-piperazin-1-yl}-isonicotinic acid], the IC50 is at most 1 µM.

As to `C[C@@H]1CN(c2ncc(C(N)=O)cc2Cl)CCN1c1cc(-c2ccc(F)cc2)nc(N2CCOC[C@H]2C)n1` [Example 143, 5-Chloro-6-{4-[6-(4-fluoro-phenyl)-2-(3-(R)-methyl-morpholin-4-yl)-pyrimidin-4-yl]-3-(R)-methyl-piperazin-1-yl}-nicotinamide], the half-maximal inhibitory concentration (IC50) was at most 1 µM.

As for `CCCN1CCN(c2nc(-c3ccc(F)c(Cl)c3)cc(N3CCN(c4ncc(C(=O)OCC)cc4Cl)CC3)n2)CC1` [Example 23, 5-Chloro-6-{4-[6-(3-chloro-4-fluoro-phenyl)-2-(4-propyl-piperazin-l-yl)-pyrimidin-4-yl] - piperazin-1-yl}-nicotinic acid ethyl ester], the half-maximal inhibitory concentration (IC50) was at most 1 µM.

Regarding `Cc1cccc(-c2cc(N3CCN(c4ncc(CO)cc4C)CC3)nc(N3CCCC3C)n2)c1` (centres unmarked) [Example 72, (5-Methyl-6-{4-[2-(2-methyl-pyrrolidin-1-yl)-6-m-tolyl-pyrimidin-4-yl]-piperazin-1-yl}-pyridin-3-yl)-methanol], the IC50 is at most 1 µM.

As for `Cc1cc(C(=O)O)cnc1N1CCN(c2cc(-c3ccccc3)nc(N3CCC[C@H]3C)n2)[C@H](C)C1` [Example 96, 5-Methyl-6-{3-(R)-methyl-4-[2-(2-(R)-methyl-pyrrolidin-1-yl)-6-phenyl-pyrimidin-4-yl]-piperazin-1-yl}-nicotinic acid], the IC50 was at most 1 µM.

With `Cc1ccc(C(N)=O)nc1N1CCN(c2cc(-c3ccc(F)cc3)nc(N3CCC[C@H]3C)n2)[C@H](C)C1` [Example 145, 6-{4-[6-(4-Fluoro-phenyl)-2-(2-(R)-methyl-pyrrolidin-1-yl)-pyrimidin-4-yl]-3-(R)-methyl-piperazin-1-yl}-5-methyl-pyridine-2-carboxylic acid amide], the half-maximal inhibitory concentration (IC50) was at most 1 µM.

On to `CC1CCCN1c1nc(-c2ccc(F)cc2)cc(N2CCN(c3ncc(C(=O)O)cc3Cl)C[C@H]2C)n1` (stereo partly drawn) [Example 29, 5-Chloro-6-{4-[6-(4-fluoro-phenyl)-2-(2-methyl-pyrrolidin-1-yl)-pyrimidin-4-yl]-3-(R)-methyl-piperazin-1-yl}-nicotinic acid], for which the IC50 is at most 1 µM.

On to `C[C@@H]1CN(c2ncc(CO)cc2Cl)CCN1c1cc(-c2ccc(F)cc2)nc(N2CCC[C@H]2C)n1` [Example 98, (5-Chloro-6-{4-[6-(4-fluoro-phenyl)-2-(2-(R)-methyl-pyrrolidin-1-yl)-pyrimidin-4-yl]-3-(R)-methyl-piperazin-1-yl}-pyridin-3-yl)-methanol], for which the half-maximal inhibitory concentration (IC50) is at most 1 µM.

For `O=C(O)c1cccnc1N1CCN(c2cc(-c3ccc(F)c(Cl)c3)nc(N3CCOCC3)n2)CC1` [Example 3, 2-{4-[6-(3-Chloro-4-fluoro-phenyl)-2-morpholin-4-yl-pyrimidin-4-yl] - piperazin-1-yl}-nicotinic acid], the IC50 is at most 1 µM.

Regarding `Cc1cc(C(=O)N2CCC(F)(F)CC2)cnc1N1CCN(c2cc(-c3ccc(F)cc3)nc(N3CCCC3C)n2)CC1` (centres unmarked) [Example 142, 4-(4-{5-[(4,4-difluoropiperidin-1-yl)carbonyl]-3-methylpyridin-2-yl}piperazin-1-yl)-6-(4-fluorophenyl)-2-(2-methylpyrrolidin-1-yl)pyrimidine], the IC50 is at most 1 µM.
